Active and inactive are the calls of the source. The rule behind the calls is not given here.
Test system: CCRIS mutagenicity, Ames/micronucleus/aberration tests
Experiment: CCRIS mutagenicity studies

With `COC(=O)Nc1nc2ccccc2[nH]1` the mutagenic call (End Point: IN VITRO CHROMOSOMAL ABERRATIONS, Test System: HUMAN PERIPHERAL LYMPHOCYTES, Metabolic Activation: RAT, LIVER, S-9, AROCLOR 1254) was “inactive; negative”, the mutagenic call (End Point: IN VITRO MICRONUCLEUS, Test System: HUMAN PERIPHERAL LYMPHOCYTES, Metabolic Activation: NONE) was “active; positive” and the mutagenic call (End Point: IN VITRO MICRONUCLEUS, Test System: V79 CELLS, Metabolic Activation: NONE) was “active; positive”. For the same compound, the mutagenic call (End Point: In vitro micronucleus, Test System: Mouse lymphoma L5178Y cells, Metabolic Activation: None) was “active; positive”, the mutagenic call (End Point: In vivo micronucleus, Test System: Micronucleated, binucleated and multinucleated hepatocytes, Species: Mouse, Strain/Sex: ddY/Male, Route: Oral) was “active; positive for micronucleated, binucleated and multinucleated cells when agent adm” and the mutagenic call (Test System: AMES SALMONELLA TYPHIMURIUM, Strain/Indicator: TA97, Metabolic Activation: NONE, Method: PREINCUBATION) was “inactive; negative”. For the same compound, the mutagenic call (Test System: AMES SALMONELLA TYPHIMURIUM, Strain/Indicator: TA97, Metabolic Activation: NONE, Method: STANDARD PLATE) was “inactive; negative”, the mutagenic call (Test System: AMES SALMONELLA TYPHIMURIUM, Strain/Indicator: TA97, Metabolic Activation: RAT, LIVER, S-9, PHENOBARBITAL AND BETA-NAPHTHOFLAVONE, Method: PREINCUBATION) was “active; positive” and the mutagenic call (Test System: AMES SALMONELLA TYPHIMURIUM, Strain/Indicator: TA97, Metabolic Activation: RAT, LIVER, S-9, PHENOBARBITAL AND BETA-NAPHTHOFLAVONE, Method: STANDARD PLATE) was “inactive; negative”. The mutagenic call (Test System: AMES SALMONELLA TYPHIMURIUM, Strain/Indicator: TA97A, Metabolic Activation: NONE, Method: STANDARD PLATE) was “inactive; negative”, the mutagenic call (Test System: AMES SALMONELLA TYPHIMURIUM, Strain/Indicator: TA97A, Metabolic Activation: PLANT, HOMOGENATE, S-14, Method: STANDARD PLATE) was “inactive; negative” and the mutagenic call (Test System: AMES SALMONELLA TYPHIMURIUM, Strain/Indicator: TA97A, Metabolic Activation: S-9, Method: STANDARD PLATE) was “inactive; negative”. The mutagenic call (Test System: AMES SALMONELLA TYPHIMURIUM, Strain/Indicator: TA98, Metabolic Activation: HAMSTER, LIVER, S-9, AROCLOR 1254 (10%), Method: PREINCUBATION) was “active; positive”, the mutagenic call (Test System: AMES SALMONELLA TYPHIMURIUM, Strain/Indicator: TA98, Metabolic Activation: NONE, Method: PREINCUBATION) was “inactive; negative” and the mutagenic call (Test System: AMES SALMONELLA TYPHIMURIUM, Strain/Indicator: TA98, Metabolic Activation: PLANT, HOMOGENATE, S-14, Method: STANDARD PLATE) was “inactive; negative”. The mutagenic call (Test System: AMES SALMONELLA TYPHIMURIUM, Strain/Indicator: TA98, Metabolic Activation: RAT, LIVER, S-9, AROCLOR 1254 (10%), Method: PREINCUBATION) was “active; positive”, the mutagenic call (Test System: AMES SALMONELLA TYPHIMURIUM, Strain/Indicator: TA98, Metabolic Activation: RAT, LIVER, S-9, PHENOBARBITAL AND BETA-NAPHTHOFLAVONE, Method: PREINCUBATION) was “active; positive” and the mutagenic call (Test System: AMES SALMONELLA TYPHIMURIUM, Strain/Indicator: TA98, Metabolic Activation: RAT, LIVER, S-9, PHENOBARBITAL AND BETA-NAPHTHOFLAVONE, Method: STANDARD PLATE) was “active; positive”. For the same compound, the mutagenic call (Test System: AMES SALMONELLA TYPHIMURIUM, Strain/Indicator: TA98, Metabolic Activation: RAT, LIVER, S-9, PHENOBARBITONE, Method: PREINCUBATION) was “inactive; negative”, the mutagenic call (Test System: AMES SALMONELLA TYPHIMURIUM, Strain/Indicator: TA98, Metabolic Activation: S-9, Method: STANDARD PLATE) was “inactive; negative” and the mutagenic call (Test System: AMES SALMONELLA TYPHIMURIUM, Strain/Indicator: TA100, Metabolic Activation: HAMSTER, LIVER, S-9, AROCLOR 1254 (10%), Method: PREINCUBATION) was “inactive; negative”. The mutagenic call (Test System: AMES SALMONELLA TYPHIMURIUM, Strain/Indicator: TA100, Metabolic Activation: NONE, Method: PREINCUBATION) was “inactive; negative”, the mutagenic call (Test System: AMES SALMONELLA TYPHIMURIUM, Strain/Indicator: TA100, Metabolic Activation: PLANT, HOMOGENATE, S-14, Method: STANDARD PLATE) was “inactive; negative” and the mutagenic call (Test System: AMES SALMONELLA TYPHIMURIUM, Strain/Indicator: TA100, Metabolic Activation: RAT, LIVER, S-9, AROCLOR 1254 (10%), Method: PREINCUBATION) was “inactive; negative”. The mutagenic call (Test System: AMES SALMONELLA TYPHIMURIUM, Strain/Indicator: TA100, Metabolic Activation: RAT, LIVER, S-9, AROCLOR 1254, Method: STANDARD PLATE) was “inactive; negative” and the mutagenic call (Test System: AMES SALMONELLA TYPHIMURIUM, Strain/Indicator: TA100, Metabolic Activation: RAT, LIVER, S-9, PHENOBARBITAL AND BETA-NAPHTHOFLAVONE, Method: PREINCUBATION) was “inactive; negative”.
